Experimental data published in patent US20260250257A1, “ANTIBACTERIAL AND SYNERGISTIC ACTIVE COMPOUND AND USE THEREOF” (EAST CHINA UNIVERSITY OF SCIENCE AND TECHNOLOGY, priority 2023, published 2026).
Converted amounts (≈) assume the structure as drawn.

How the values were obtained:
Assay type in all cases: cell-based
[1] = tested on: ATCC19606 strain (Acinetobacter baumannii); experiment: Checkerboard antibacterial synergistic activity test with polymyxin E (FIC); parameters: key: FIC≤0.5 synergy; 0.5–1 additive; 1–2 indifferent; ≥2 antagonism; details: combined with polymyxin E
Procedure: (§1) Polymyxin E was diluted in sterile MH broth medium to concentrations of 16, 8, 4, 2, 1, 0.5, 0.25, 0.125, 0.0625, 0.031, and 0.015 μg/ml, and the drug to be tested was diluted to concentrations of 256, 128, 64, 32, 16, 8, and 4 μg/ml. According to the checkerboard method, combinations of the drug to be tested and polymyxin at different concentrations in ascending order were placed into a 96-well plate, and corresponding blank control groups were set up. 50 μl of the drug solution was added to each well, then 100 μl of bacterial liquid was added, and incubated in a 37° C. incubator for 16 hours. […] Calculation and judgment criteria:
(§2) Fractional Inhibitory Concentration (FIC) is calculated as follows: […]
(§3) Judgment criteria: FIC≤0.5: synergistic effect; 0.5<FIC<1: additive effect; 1<FIC<2: indifferent effect; FIC≥2: antagonistic effect.
(§4) In the table: ATCC19606 strain is Acinetobacter baumannii, ATCC25922 strain is Escherichia coli, ATCC13883 strain is Klebsiella pneumoniae, ATCC9027 strain is Pseudomonas aeruginosa. All four strains were purchased from ATCC.

[2] = tested on: ATCC13883 strain (Klebsiella pneumoniae); experiment: as above; parameters: key: FIC≤0.5 synergy; 0.5–1 additive; 1–2 indifferent; ≥2 antagonism; details: combined with polymyxin E
Procedure: as §1, §2, §3, §4

[3] = tested on: ATCC25922 strain (Escherichia coli); experiment: as above; parameters: key: FIC≤0.5 synergy; 0.5–1 additive; 1–2 indifferent; ≥2 antagonism; details: combined with polymyxin E
Procedure: as §1, §2, §3, §4

[4] = tested on: ATCC9027 strain (Pseudomonas aeruginosa); experiment: as above; parameters: key: FIC≤0.5 synergy; 0.5–1 additive; 1–2 indifferent; ≥2 antagonism; details: combined with polymyxin E
Procedure: as §1, §2, §3, §4

[5] = tested on: ATCC19606 strain (Acinetobacter baumannii); experiment: Broth microdilution, antibacterial activity of the compound used alone; details: for MIC: read-out: Antibacterial activity of the compound of Formula I, ATCC19606
Excerpt: (§5) The broth microdilution method was used to test the antibacterial effects of the compounds of the present invention against various Gram-negative bacterial strains when used alone.

[6] = tested on: ATCC13883 strain (Klebsiella pneumoniae); experiment: as above; details: for MIC: read-out: Antibacterial activity of the compound of Formula I, ATCC13883
Excerpt: as §5

[7] = tested on: ATCC25922 strain (Escherichia coli); experiment: as above; details: for MIC: read-out: Antibacterial activity of the compound of Formula I, ATCC25922
Excerpt: as §5

[8] = tested on: ATCC9027 strain (Pseudomonas aeruginosa); experiment: as above; details: for MIC: read-out: Antibacterial activity of the compound of Formula I, ATCC9027
Excerpt: as §5

MIC [5]	MIC [6]	MIC [7]	MIC [8]	Structure (SMILES)	Synergistic activity (FIC value) ATCC19606 [1]	Synergistic activity (FIC value) ATCC13883 [2]	Synergistic activity (FIC value) ATCC25922 [3]	Synergistic activity (FIC value) ATCC9027 [4]	Antibacterial activity of the compound of Formula I, ATCC19606 [5]	Antibacterial activity of the compound of Formula I, ATCC13883 [6]	Antibacterial activity of the compound of Formula I, ATCC25922 [7]	Antibacterial activity of the compound of Formula I, ATCC9027 [8]
				CSc1ccccc1-c1csc(N=C(N)N)n1 [Compound I-26]	0.5	1.25	0.63	1.25	256 µg/mL	256 µg/mL	256 µg/mL	256 µg/mL
256 µg/mL (≈ 847 µM)	256 µg/mL (≈ 847 µM)	256 µg/mL (≈ 847 µM)	256 µg/mL (≈ 847 µM)	CC(C)=CCOc1cccc(-c2csc(N=C(N)N)n2)c1 [Compound I-47]	0.75	1.25	0.5	1.25				
				Oc1c(Br)cc(-c2coc(N=C3NCCCN3)n2)cc1Br [Compound I-178]	0.51	1.25	1.25	1.25	256 µg/mL	256 µg/mL	256 µg/mL	256 µg/mL
				Cc1cc(C)c2c(-c3csc(N=C(N)N)n3)cccc2c1 [Compound I-61]	0.75	0.63	0.5	0.56	256 µg/mL	256 µg/mL	256 µg/mL	256 µg/mL
				CC(C)c1ccccc1-c1coc(N=C(N)N)n1 [Compound I-15]	1.25	1.25	0.5	1.25	256 µg/mL	256 µg/mL	256 µg/mL	256 µg/mL
				NC(N)=Nc1nc(-c2cccc(Oc3ccc(N4CCOCC4)cc3)c2)cs1 [Compound I-105]	1.25	1.25	1.25	0.51	256 µg/mL	256 µg/mL	256 µg/mL	256 µg/mL
				NC(N)=Nc1nc(-c2cccc(C(=O)Nc3ccccc3)c2)cs1 [Compound I-110]	0.25	0.31	0.56	0.5	256 µg/mL	256 µg/mL	256 µg/mL	256 µg/mL
				NC(N)=Nc1nc(-c2ccc3ccccn23)cs1 [Compound I-122]	0.56	0.56	0.38	0.75	256 µg/mL	256 µg/mL	256 µg/mL	256 µg/mL
				CCc1[nH]c(N=C(N)N)nc1-c1cccc2c(C)cccc12 [Compound I-60]	0.12	0.31	0.38	0.31	256 µg/mL	256 µg/mL	256 µg/mL	256 µg/mL
				NC(N)=Nc1nc(-c2cccc3cccnc23)co1 [Compound I-67]	0.5	1.25	0.63	1.25	256 µg/mL	256 µg/mL	256 µg/mL	256 µg/mL
				CC(C)(C)c1cccc(-c2c[se]c(N=C(N)N)n2)c1 [Compound I-11]	0.3	0.25	0.5	0.63	256 µg/mL	256 µg/mL	256 µg/mL	256 µg/mL
				Oc1c(Cl)cc(-c2csc(N=C3NCCCN3)n2)cc1Cl [Compound I-188]	0.25	1.25	1.25	0.52	256 µg/mL	256 µg/mL	256 µg/mL	256 µg/mL
				CNS(=O)(=O)c1cc(-c2c[se]c(N=C3NCCCN3)n2)ccc1C [Compound I-171]	0.75	0.63	0.5	0.56	256 µg/mL	256 µg/mL	256 µg/mL	256 µg/mL
				Cc1[nH]c(N=C2NCCCN2)nc1-c1cc(C(C)(C)C)cc(C(C)(C)C)c1 [Compound I-162]	0.03	0.16	0.18	0.28	256 µg/mL	256 µg/mL	256 µg/mL	256 µg/mL
256 µg/mL (≈ 723 µM)	256 µg/mL (≈ 723 µM)	256 µg/mL (≈ 723 µM)	256 µg/mL (≈ 723 µM)	NC(N)=Nc1nc(-c2cc(C(F)(F)F)cc(C(F)(F)F)c2)cs1 [Compound I-44]	0.14	0.25	0.31	0.52				
				Cc1sc(N=C2NCCCN2)nc1-c1cc(C(C)C)cc(C(C)C)c1 [Compound I-167]	0.3	0.25	0.5	0.63	256 µg/mL	256 µg/mL	256 µg/mL	256 µg/mL
				N#Cc1ccc(-c2csc(N=C3NCCCN3)n2)c(Br)c1 [Compound I-174]	0.52	0.52	0.63	1.25	256 µg/mL	256 µg/mL	256 µg/mL	256 µg/mL
				Ic1cccc(-c2csc(N=C3NCCCN3)n2)c1 [Compound I-180]	0.26	1.25	1.25	1.25	256 µg/mL	256 µg/mL	256 µg/mL	256 µg/mL
